From patent publication US9808003B2, “Herbicidally active 2-(substituted-phenyl)-cyclopentane-1,3-dione compounds and derivatives thereof” (Syngenta Limited, priority 2013, dated 2017)

Tests used:
Type in all cases: in vivo
Conditions in all cases: 14 DAA
[1] = system: Winter Barley “Suzuka”; test: Test 1B glasshouse assay, post-emergence herbicidal activity against cereal crops
Description: (§1) Biological Example 1B tests the herbicidal activity of“technical” compounds (i.e. compounds not previously formulated before the test), as the herbicides under test.
(§2) An “instant formulation”, known as the “IF50”, containing 50 g/liter (i.e. 5% w/v) of the “technical” (i.e. unformulated) active ingredient (i.e. the herbicide under test), is prepared by dissolving the active ingredient in a mixture of organic solvents and emulsifier, details of which are provided in the Table below.
(§3) This IF50 is mixed with a small, variable amount of acetone to aid dissolution, before addition of a 0.5% v/v aqueous solution of the adjuvant Adigor™ (an adjuvant containing rapeseed oil methyl ester, ethoxylated alcohols, and a mixture of heavy aromatic hydrocarbons, e.g. available from Syngenta), as the aqueous diluent, to form an aqueous spray solution which contains a predetermined concentration of the active ingredient (which varies depending on the application rate of the active ingredient to the plants) and 0.5% v/v of the adjuvant Adigor™. This aqueous spray solution is suitable for spraying onto plants.
(§4) Seeds of a variety of test species are sown in standard soil in pots. After cultivation for 14 days under controlled conditions in a glasshouse (at 22/16° C., day/night; 16 hours light; 65% humidity), the plants are sprayed post-emergence with the above-mentioned aqueous spray solution containing inter alia the “technical” active ingredient (i.e. the herbicide under test) and the adjuvant Adigor™.
(§5) The test plants are then grown on under controlled conditions in the glasshouse (at 22/16° C., day/night; 16 hours light; 65% humidity) and are watered twice daily. 14 days after application of the test herbicide, the test is evaluated visually for percentage phytotoxicity to the plant (where 100%=total damage to plant; 0%=no damage to plant).
(§6) More specifically, post-emergence herbicidal activity (phytotoxicity) data, on certain tested grassy monocotyledonous weeds (and/or plants of the type Gramineae) and cereal crops in the glasshouse, are measured 14 days after application of the herbicide (14 DAA), typically for inter alia one or more of the following application rates: • (a) a post-emergence application rate of 60 g/ha of the test herbicide with or without 50 g/ha of cloquintocet-mexyl safener, and • (b) a post-emergence application rate of 90 g/ha of the test herbicide with 50 g/ha of cloquintocet-mexyl safener, and • (c) a post-emergence application rate of 120 g/ha of the test herbicide with 50 g/ha of cloquintocet-mexyl safener.
(§7) The cloquintocet-mexyl, when used, is present in the formulation containing the herbicide under test dissolved in acetone plus IF50.
(§8) The range of herbicide application rates tested sometimes includes application rates other than those shown above, and the rates can vary depending on the herbicide under test.
(§9) Herbicidal activity (phytotoxicity) is evaluated visually, and an assessed percentage phytotoxicity score is given for each herbicidal application on each plant species (with 100%=total damage to plant; 0%=no damage to plant; the assessment is recorded in increments of 1%). Two replicates are made for each experiment, and the mean herbicidal activity (phytotoxicity) data is reported.

[2] = system: Winter Wheat “Hereward”; test: as above
Description: as §1, §2, §3, §4, §5, §6, §7, §8, §9

[3] = system: Spring Wheat “Teal”; test: as above
Description: as §1, §2, §3, §4, §5, §6, §7, §8, §9

[4] = system: Spring Barley “Harrington”; test: as above
Description: as §1, §2, §3, §4, §5, §6, §7, §8, §9

[5] = system: Lolium multiflorum (LOLMU); test: Test 1B glasshouse assay, post-emergence herbicidal activity against grassy weeds
Description: as §1, §2, §3, §4, §5, §6, §7, §8, §9
(§10) For compounds A34, A98, A99, A87, A100, A101, A89, A120, A120A, A120B, A23, A127, A128, A89, A112 and A113 the tested weeds were as follows: Avena fatua (AVEFA), Lolium multiflorum (LOLMU), Setaria viridis (SETVI), Poa annua (POAAN), Alopecurus myosuroides (ALOMY). All five of these are grassy monocotyledonous weeds. Except for SETVI, these are all “cool-season” grassy monocotyledonous weeds.

[6] = system: Avena fatua (AVEFA); test: as above
Description: as §1, §2, §3, §4, §5, §6, §7, §8, §9, §10

[7] = system: Setaria viridis (SETVI); test: as above
Description: as §1, §2, §3, §4, §5, §6, §7, §8, §9, §10

[8] = system: Alopecurus myosuroides (ALOMY); test: as above
Description: as §1, §2, §3, §4, §5, §6, §7, §8, §9, §10

[9] = system: Poa annua (POAAN); test: as above
Description: as §1, §2, §3, §4, §5, §6, §7, §8, §9, §10

[10] = 30 g/ha herbicide, 50 g/ha cloquintocet-mexyl
[11] = 45 g/ha herbicide, 50 g/ha cloquintocet-mexyl
[12] = 60 g/ha herbicide, 0 g/ha cloquintocet-mexyl
[13] = 60 g/ha herbicide, 50 g/ha cloquintocet-mexyl

CCc1cc(-n2cc(Cl)cn2)cc(C)c1C1C(=O)C[C@H](CCNC(=O)c2ccccn2)C1=O (stereo partly drawn) [Compound A101]
Post-emergence herbicidal activity against cereal crops, percentage phytotoxicity, Winter Barley “Suzuka” [1, 10]: 23% | Post-emergence herbicidal activity against cereal crops, percentage phytotoxicity, Winter Barley “Suzuka” [1, 11]: 23% | Post-emergence herbicidal activity against cereal crops, percentage phytotoxicity, Winter Barley “Suzuka” [1, 12]: 75% | Post-emergence herbicidal activity against cereal crops, percentage phytotoxicity, Winter Barley “Suzuka” [1, 13]: 40% | Post-emergence herbicidal activity against cereal crops, percentage phytotoxicity, Winter Wheat “Hereward” [2, 10]: 18% | Post-emergence herbicidal activity against cereal crops, percentage phytotoxicity, Winter Wheat “Hereward” [2, 11]: 23% | Post-emergence herbicidal activity against cereal crops, percentage phytotoxicity, Winter Wheat “Hereward” [2, 12]: 43% | Post-emergence herbicidal activity against cereal crops, percentage phytotoxicity, Winter Wheat “Hereward” [2, 13]: 38% | Post-emergence herbicidal activity against cereal crops, percentage phytotoxicity, Spring Wheat “Teal” [3, 10]: 10% | Post-emergence herbicidal activity against cereal crops, percentage phytotoxicity, Spring Wheat “Teal” [3, 11]: 13% | Post-emergence herbicidal activity against cereal crops, percentage phytotoxicity, Spring Wheat “Teal” [3, 12]: 48% | Post-emergence herbicidal activity against cereal crops, percentage phytotoxicity, Spring Wheat “Teal” [3, 13]: 18% | Post-emergence herbicidal activity against cereal crops, percentage phytotoxicity, Spring Barley “Harrington” [4, 10]: 18% | Post-emergence herbicidal activity against cereal crops, percentage phytotoxicity, Spring Barley “Harrington” [4, 11]: 18% | Post-emergence herbicidal activity against cereal crops, percentage phytotoxicity, Spring Barley “Harrington” [4, 12]: 48% | Post-emergence herbicidal activity against cereal crops, percentage phytotoxicity, Spring Barley “Harrington” [4, 13]: 23% | Post-emergence herbicidal activity, percentage phytotoxicity, LOLMU [5, 10]: 68% | Post-emergence herbicidal activity, percentage phytotoxicity, LOLMU [5, 11]: 83% | Post-emergence herbicidal activity, percentage phytotoxicity, LOLMU [5, 12]: 88% | Post-emergence herbicidal activity, percentage phytotoxicity, LOLMU [5, 13]: 83% | Post-emergence herbicidal activity, percentage phytotoxicity, AVEFA [6, 10]: 73% | Post-emergence herbicidal activity, percentage phytotoxicity, AVEFA [6, 11]: 88% | Post-emergence herbicidal activity, percentage phytotoxicity, AVEFA [6, 12]: 90% | Post-emergence herbicidal activity, percentage phytotoxicity, AVEFA [6, 13]: 88% | Post-emergence herbicidal activity, percentage phytotoxicity, SETVI [7, 10]: 15% | Post-emergence herbicidal activity, percentage phytotoxicity, SETVI [7, 11]: 35% | Post-emergence herbicidal activity, percentage phytotoxicity, SETVI [7, 12]: 53% | Post-emergence herbicidal activity, percentage phytotoxicity, SETVI [7, 13]: 53% | Post-emergence herbicidal activity, percentage phytotoxicity, ALOMY [8, 10]: 25% | Post-emergence herbicidal activity, percentage phytotoxicity, ALOMY [8, 11]: 43% | Post-emergence herbicidal activity, percentage phytotoxicity, ALOMY [8, 12]: 55% | Post-emergence herbicidal activity, percentage phytotoxicity, ALOMY [8, 13]: 55% | Post-emergence herbicidal activity, percentage phytotoxicity, POAAN [9, 10]: 5% | Post-emergence herbicidal activity, percentage phytotoxicity, POAAN [9, 11]: 15% | Post-emergence herbicidal activity, percentage phytotoxicity, POAAN [9, 12]: 48% | Post-emergence herbicidal activity, percentage phytotoxicity, POAAN [9, 13]: 38%
